Key:
WT human PAR4 (hPAR4) = target: T1, WT human PAR4 (hPAR4) (Homo sapiens, UniProt Q96RI0); assay: PAR4 calcium flux assay in HEK293T/17 cells expressing WT PAR4; type: cell-based; conditions: CatG 2.5 μM; 100 nM vorapaxar
T1 construct: Flag; expressed in transfected cells; host or cells: HEK293T/17 (ATCC CRL-11268)
T1 sequence (Q96RI0 18-385): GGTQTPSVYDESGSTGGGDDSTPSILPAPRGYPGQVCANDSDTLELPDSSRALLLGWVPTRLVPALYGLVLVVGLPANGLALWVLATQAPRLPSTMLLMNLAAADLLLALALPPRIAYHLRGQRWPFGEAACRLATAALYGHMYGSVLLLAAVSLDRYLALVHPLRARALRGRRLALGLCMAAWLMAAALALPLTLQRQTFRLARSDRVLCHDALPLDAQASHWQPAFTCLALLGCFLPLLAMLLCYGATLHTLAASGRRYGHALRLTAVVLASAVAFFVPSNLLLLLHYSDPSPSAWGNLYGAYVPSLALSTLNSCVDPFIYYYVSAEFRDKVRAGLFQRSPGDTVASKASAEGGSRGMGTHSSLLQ
Description: PAR4 calcium flux assays. PAR4-dependent calcium flux was measured using Fura2-QBT in platelets and HEK293T/17 cells with wild-type (WT) and mutant PAR4 (Tourdot et al., Arterioscler Thromb Vasc Biol. 2014; 34(12):2644-2650).
PAR4 mutant calcium flux assays. Using Quikchange Lightning Site-Directed mutagenesis (Agilent) per manufacturing instructions, pCMV-Flag-PAR4-S66E, pCMV-Flag-PAR4-S67E, and pCMV-Flag-PAR4-R68E were generated from mutation of pCMV-Flag-PAR4 and confirmed by sequencing (University of Utah DNA Sequencing Core). Prior to transfection, HEK293T/17 cells (ATCC CRL-11268) were seeded at 4.5×10^4/mL. The following day, cells were transfected with the plasmid of interest using Lipofectamine 2000 (Invitrogen, Carlsbad, CA, USA). Twenty-four hours after transfection, media was removed and replaced with Optimem w/Glutamax (Gibco, Carlsbad, CA, USA) containing vorapaxar (100 nM) (Cayman Chemical, Ann Arbor, MI, USA) and Fura2-QBT (Molecular Devices). Following incubation for 1 hour at 37° C., plate was placed in the Flexstation 3 (Molecular Devices) where agonists, Tyrode's Buffer, cathepsin G (2.5 μM), or α-thrombin (1.5 U/mL), were injected onto cells and calcium mobilization was monitored and recorded.

washed platelets [1] = assay: Platelet activation by flow cytometry (PAC-1 binding, P-selectin); type: cell-based, human
Description: Platelet isolation, aggregation, and activation. Human washed platelets were prepared and resuspended in Tyrode's Buffer at 2×10^8/mL as described (Edelstein et al., Nat Med. 2013; 19(12):1609-1616). For human and dog platelet comparisons, platelets were prepared using a modified human platelet protocol with final concentrations of […] (Cayman Chemical, Ann Arbor, MI, USA) used during centrifugation steps. Centrifugations after Tyrode's washes was decreased to 1,250×g as described in Cremer et al., PLOS One. 2019; 14(11): e0224891. Platelet aggregation was measured under stirring conditions at 37° C. using a PAP-8E aggregometer after treatment with the following agonists: arachidonic acid (Bio/Data Corporation, Horsham, PA, USA), cathepsin G, elastase, proteinase 3 (Athens Research Group), α-thrombin (Sigma, St. Louis, MO, USA), PAR-1 peptide (SFLLRN) (GL Biochem, China). P-selectin and PAC-1 were measured as previously described (Yee et al., J Thromb Haemost. 2006; 4(9):2043-2050; Tourdot et al., Arterioscler Thromb Vasc Biol. 2014; 34(12):2644-2650).
(§1) GYPGQV-NH2 (SEQ ID NO: 5), RALLLGWVPTR-NH2 (SEQ ID NO: 1), ALLLGWVPTR-NH2 (SEQ ID NO: 2), RALLLG-NH2 (SEQ ID NO: 4). Peptides were synthesized by BIOMATIK (Wilmington, DE, USA) at similar purities. All peptides were suspended in 50% DMSO and 50% ethanol. To measure platelet activation, washed platelets were stimulated with various concentrations of the peptide in the presence of CD41-APC, P-selectin (PE) and PAC-1 (FITC) for 15 minutes at 37° C. and then fixed with FACS Lysis Buffer. Samples were immediately run on a Cytoflex flow cytometer. In some experiments, platelets were stimulated with peptides and platelet aggregation performed as described above. Platelet calcium flux was induced by RALLLGWVPTR (2 mM; SEQ ID NO: 1), CatG (500 nM), ALLLGWVPTR (2 mM; SEQ ID NO: 2) or tyrodes buffer and monitored as described above.

washed platelets [2] = assay: Platelet calcium flux assay; type: cell-based, human; conditions: CatG 500 nM
Description: Platelet calcium flux assay. Washed platelets were incubated at 37° C. for 1 hour in Tyrode's buffer (supplemented with pgel and heparin) with Fura-2AM (final concentration 2 μM). Platelets were washed and resuspended to a final concentration of 4×10^8/mL. Platelets were dispensed into a Costar 96-well half area clear bottom plate and placed in the Flexstation 3 (Molecular Devices) where cathepsin G (500 nM), buffer, or peptides (2 mM) were injected onto cells and calcium flux monitored.
as §1

[3] = CatG stimulation, increasing concentrations

With “CatG: serine protease cathepsin G released by activated neutrophils” the “CatG-induced calcium flux, WT PAR4 compared with mock transfection” value (WT human PAR4 (hPAR4)) was “increased calcium flux”, the “P-selectin expression, PAR4 Thr120 homozygous platelets compared with Ala120” value (washed platelets [1]; [3]) was “modest but significantly greater” and the “αIIbβ3 activation, PAR4 Thr120 homozygous platelets compared with Ala120” value (washed platelets [1]; [3]) was “modest but significantly greater”. The “αIIbβ3 activation (PAC-1 binding) induced by neutrophil serine protease” value (washed platelets [1]; washed platelets, varying concentrations) was “only protease to induce”, the “peak platelet calcium flux, CatG compared with RALLLGWVPTR” value (washed platelets [2]; RA-11mer 2 mM) was “similar” and the platelet calcium flux (washed platelets [2]; peptides 2 mM, FURA2-AM loaded washed platelets) was “decreased over time”.
